The values below come from US11969396B2, “IPA-3-loaded liposomes and methods of use thereof” (University of Georgia Research Foundation, Inc., priority 2016, dated 2024).

Data set [1] concerns PC-3 cell tumor xenografts. In words: In vivo prostate tumor xenograft growth. Details: species or system athymic nude mice. As to conditions: 5 mg/kg i.p., 2 days/week, from day 7 to day 25. How it is done: (§1) All animal procedures listed in this article were performed as per the protocol approved by the Institutional Animal Care and Use Committee at the Charlie Norwood Veterans Affairs Medical Center, Augusta, GA (protocol #12-06-049). PC-3 cells were grown to 60-70% confluent in 225-ml flasks. Next, cells were collected and suspended in sterile normal saline. Cell suspension (3 million cells//mouse) was injected subcutaneously (SC) in 6-8-weeks-old male athymic nude mice (Harlan, Indianapolis, IN) (n=5-6). All the treatments (DMSO, empty liposomes, free IPA-3 (5 mg/Kg), and SSL-IPA-3 (5 mg/kg) were started on day 7 from tumor implantation, and were administered two times a week (i.p.). Tumor diameters were measured with digital calipers on day 7, 14, 21, and 25, and the tumor volume in mm^3 were calculated by the modified ellipsoidal formula (Tumor volume=½[length×width^2]). Average size of the tumors prior to the treatment with free IPA-3 and SSL-IPA-3 were 42 mm^3. Mice were sacrificed on day 25 and tumors were dissected, weighed, and snap-frozen for further immunohistochemistry analysis.

For data set [2], the system named is PC-3 cells. Kind of data set: Cell death by annexin V and PI staining, flow cytometry. The format is cell-based, human. As to conditions: 48 hr, free IPA-3 20-30 μM. For orientation: A flow cytometer gives signals particle by particle.
Data set [3] has as its system PC-3 cell tumor xenografts. As to conditions: daily administration (Al-Azayzih et al. 2015); cited from earlier work.
In data set [4] the test system is PC-3 cell prostate tumor xenografts. Kind of data set: TUNEL assay of apoptosis in tumor xenograft sections. It is filed as in vivo, athymic nude mice. As to conditions: 5 mg/kg i.p., 2 days/week; day 25. The method, then: as §1
The TUNEL assay for in situ detection of apoptosis was performed using the ApopTag® Fluorescein in situ Apoptosis detection kit (Millipore, MA) as described previously8. Frozen sections taken from prostate tumor xenografts were fixed in 2% paraformaldehyde at 4° C. for 30 min. […]

A further data set deals with DU-145 cells. Kind of data set: In vitro cytotoxicity, MTT staining. The format is cell-based, human. The method, then: (§2) The human prostate cancer cell lines PC-3, LNCaP and DU-145 and the breast cancer cell lines MCF-7 and MDA-231 were purchased from ATCC (Manassas, Va.). PC-3, LNCaP, and DU-145 cells were cultured in F12K, RPMI, and EMEM, respectively. MCF-7 and MDA-231 cells were cultured in RPMI. All culture media were supplemented with 10% FBS and 1% penicillin/streptomycin antibiotics (ATCC). All the cells were maintained at 37° C. in incubators with 5% CO2 and humidified atmosphere.
(§3) The cytotoxicity of the liposomal IPA-3 as well as the free IPA-3 was determined in three prostate cancer cell lines (PC-3, LNCaP, and DU-145) using the MTT assay (Twentyman, et al., Br J Cancer. 1987; 56: 279-85). Free IPA-3 and SSL-IPA-3 were used for comparison. Cells were seeded in 48-well tissue culture plates at 5×10^4 cells/ml and incubated at 37° C. in a 5% CO2 incubator for 24 hr. This time was sufficient for the cells to attach and resume their growth. Liposomes were diluted in the different culture media to their final concentrations and experiments were performed in triplicates. […] Plates were shaken for 15 min and absorbance was read at 590 nm using a Spectra Max M2 plate reader (BMG Lab Technologies, Inc., Durham, NC). […]

The test system of another data set is MCF-7 cells. In words: In vitro cytotoxicity, MTT staining. It is filed as cell-based. As to conditions: Homo sapiens, MCF7.
For data set [5] the following is noted: free form (Rudolph et al. 2015); cited from earlier work.
The nature of data set [6]: Body weight of tumor bearing mice. The format is in vivo, athymic nude mice. As to conditions: 5 mg/kg i.p., 2 days/week; after 25 days. How it is done:
as §1

Data set [7] relates to human prostate cancer cell lines PC-3, LNCaP and DU-145. Kind of data set: In vitro cytotoxicity, MTT staining, across the prostate cancer cell lines. The format is cell-based. How it is done: as §2, §3
A further data set concerns MDA-231 cells. In words: In vitro cytotoxicity, MTT staining. The format is cell-based. As to conditions: Homo sapiens, MDA-MB-231.
The test system of data set [8] is PC-3 cells. In words: In vitro cytotoxicity, MTT staining. The format is cell-based. As to conditions: Homo sapiens. How it is done: as §2, §3
Another data set deals with LNCaP cells. Kind of data set: In vitro cytotoxicity, MTT staining. The format is cell-based. As to conditions: Homo sapiens. The method, then:
as §2, §3

For orientation: IC50 means the concentration at which inhibition is half-maximal. For the compound `Oc1ccc2ccccc2c1SSc1c(O)ccc2ccccc12` [IPA-3, 1,1′-Dithiodi-2-naphthtol], in data set [1], the “PC-3 cell tumor xenograft growth” value is recorded as “did not have a significant effect”. For the same compound, in the data set on PC-3 cells [2], the “percent of cells staining positive for annexin V alone” value is reported as “significantly increased”. For the same compound, the “percent of cells staining positive for both annexin V and PI” value in the data set on PC-3 cells [2] is listed as “significantly increased”. Moreover, the “prostate tumor xenograft growth” value in data set [3] is “reduced prostate tumor xenograft growth”. For the same compound, the “number of apoptotic (TUNEL positive) cells per field compared to control groups” value in data set [4] is reported as “significant increases”. In the data set with DU-145 cells, the “susceptibility of DU-145 cells compared to PC-3 and LNCaP cells” value is “less susceptible”. Further, the IC50 in the data set with DU-145 cells (Homo sapiens, DU-145, DU-145) was roughly 32 µM; with MCF-7 cells, 25 µM; in [7] (Homo sapiens, depending on the cell line, MTT staining), 10 to 35 µM; with MDA-231 cells, 8 µM; in the data set with PC-3 cells [8], 12 µM; with LNCaP cells, 10 µM. Besides, in data set [5], the half-life in vivo result is recorded as “very short half-life”. For the same compound, the “effect on body weight of mice” value in data set [6] was “no significant effect”. The “effect on MTT staining” value in data set [7] (concentrations of 5-30 μM, 24, 48, 72 hrs) is listed as “concentration-and time-dependent decreases in MTT staining”.
